This note sets out measurements from ChEMBL document CHEMBL1157008, “Discovery of 2-{4-[(3S)-piperidin-3-yl]phenyl}-2H-indazole-7-carboxamide (MK-4827): a novel oral poly(ADP-ribose)polymerase (PARP) inhibitor efficacious in BRCA-1 and -2 mutant tumors” (J Med Chem, 2009).

The target of series [1] is T1, Cytochrome P450 1A2 (Rattus norvegicus, UniProt P04799).
T1 sequence (P04799 whole entry): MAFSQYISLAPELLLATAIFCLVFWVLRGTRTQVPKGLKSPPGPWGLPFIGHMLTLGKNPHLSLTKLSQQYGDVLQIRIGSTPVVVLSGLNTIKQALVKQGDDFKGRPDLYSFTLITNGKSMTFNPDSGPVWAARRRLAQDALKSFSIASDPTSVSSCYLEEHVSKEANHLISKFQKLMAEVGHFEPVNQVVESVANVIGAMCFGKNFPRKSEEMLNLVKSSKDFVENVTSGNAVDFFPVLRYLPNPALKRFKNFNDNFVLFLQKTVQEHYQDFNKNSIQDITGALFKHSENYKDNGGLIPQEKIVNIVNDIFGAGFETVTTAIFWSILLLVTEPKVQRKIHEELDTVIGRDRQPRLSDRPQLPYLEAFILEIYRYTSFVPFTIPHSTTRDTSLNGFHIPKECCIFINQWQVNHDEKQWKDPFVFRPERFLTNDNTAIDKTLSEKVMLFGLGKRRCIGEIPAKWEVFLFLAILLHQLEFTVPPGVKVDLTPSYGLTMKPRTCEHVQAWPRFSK
The series can be described thus: (§1) Intrinsic clearance in rat liver microsomes assessed per mg of protein up to 60 mins in presence of rat recombinant CYP1A2. The settings on record: microsomes, 1 h. In kind it is ADME, Microsome. (In general: Microsomes from liver hold many membrane-bound enzymes, among them those of drug oxidation.)

Series [2] relates to MDA-MB-436. The following applies: Homo sapiens, 100 mg/kg.
Description: Antitumor activity against human MDA-MB-436 cells expressing BRCA1 5396 + 1G>A mutant xenografted in CD1 mouse assessed as tumor regression at 100 mg/kg, po qd for 33 days
The nature of series [3]: Antiproliferative activity against human PrEC cells after 6 to 7 days by cell titer-blue assay.
In series [4] the test system is CAPAN-1. The series is described as follows: cells. The settings on record: Homo sapiens, CAPAN-1, 312 h.
Description: Antiproliferative activity against human Capan1 cells expressing BRCA2 6174delT mutation and loss of wild-type allele after 13 days by cell titer-blue assay
In series [5] the test system is HeLa. The series can be described thus: Antiproliferative activity against human HeLa cells expressing wild type BRCA1 after 7 days by cell titer-blue assay. In kind it is functional. The following applies: 168 h. In general terms: The colour change of resazurin is a common sign of viable cells or microbes.
A short description of series [6]: Oral bioavailability in rat. In kind it is ADME, organism-based. The following applies: in vivo.
Series [7] in a line: Antiproliferative activity against HMEC after 6 to 7 days by cell titer-blue assay. The following applies: human, HMEC cells.
Series [8] deals with MDA-MB-436. The following applies: Homo sapiens, 50 mg/kg.
Description: Antitumor activity against human MDA-MB-436 cells expressing BRCA1 5396 + 1G>A mutant xenografted in CD1 mouse assessed as tumor regression at 50 mg/kg, po bid for 33 days
Series [9] relates to HeLa. The series can be described thus: Antiproliferative activity against BRCA1 deficient human HeLa cells after 7 days by cell titer-blue assay. In kind it is functional. The settings on record: 168 h.
The nature of series [10]: cells. The settings on record: Homo sapiens, MDA-MB-436, 144 h.
Description: Antiproliferative activity against human MDA-MB-436 cells expressing BRCA1 5396 + 1G>A mutant after 6 days by cell titer-blue assay
Series [11] is described as follows: Intrinsic clearance in rat liver microsomes assessed per mg of protein up to 90 mins. The class given is ADME, Microsome.
Series [12] addresses T2, PARP 1, 2 and 3 (Homo sapiens, UniProt P09874+Q9Y6F1+Q9UGN5). The following applies: HeLa.
Series [13] is described as follows: Intrinsic clearance in mouse liver microsomes assessed per mg of protein up to 90 mins. In kind it is ADME, Microsome.
A short description of series [14]: Plasma clearance in rat. The class given is ADME, organism-based.
Series [15] addresses T3, CYP1A2 (Rattus norvegicus, UniProt P04799).
T3 sequence (P04799 whole entry): T1 sequence (P04799 whole entry)
Described as §1. The class given is ADME, Microsome. The following applies: rat liver microsomes with rat recombinant CYP1A2.

Series [16] in a line: Intrinsic clearance in rat liver microsomes assessed per mg of protein in presence of NADPH. In kind it is ADME, Microsome.
Series [17] can be described thus: Intrinsic clearance in rat intestine microsomes assessed per mg of protein in presence of NADPH. The class given is ADME, Microsome.
Series [18] is described as follows: Biodistribution in iv dosed rat urine within 24 hrs. The settings on record: in vivo. The class given is ADME, organism-based.
Series [19] can be described thus: Intrinsic clearance in rat lung microsomes assessed per mg of protein in presence of NADPH. In kind it is ADME, Microsome.
Series [20] addresses Poly [ADP-ribose] polymerase 1 (Homo sapiens, UniProt P09874). The series is described as follows: Inhibition of human PARP1 by SPA.
A short description of series [21]: Intrinsic clearance in rat kidney microsomes assessed per mg of protein in presence of NADPH. The class given is ADME, Microsome.
Series [22] deals with T2, PARP 1, 2 and 3. The series is described as follows: Inhibition of PARP in hydrogen peroxide-induced human HeLa cells assessed as inhibition DNA-damage-induced PARylation. In kind it is cell-based.
The subject of series [23] is HeLa. The series can be described thus: Selectivity index, ratio of CC50 for BRCA1 proficient human HeLa cells to CC50 for BRCA1 deficient human HeLa cells. The class given is functional.
Series [24] can be described thus: Metabolic stability in rat heart microsomes assessed as compound degradation in presence of NADPH. In kind it is ADME.
The nature of series [25]: Biodistribution in iv dosed rat urine assessed as tert-butyl (3S)-3-{4-[7-(aminocarbonyl)-2H-indazol-2-yl]phenyl}piperidine-1-carboxylate level within 24 hrs. The class given is ADME, organism-based. The following applies: in vivo.

Calls of active or inactive are those of the source. No cut-off for these calls is given here. Bounds are passed on as bounds.

Chain of Poly [ADP-ribose] polymerase 1 (P09874 whole entry): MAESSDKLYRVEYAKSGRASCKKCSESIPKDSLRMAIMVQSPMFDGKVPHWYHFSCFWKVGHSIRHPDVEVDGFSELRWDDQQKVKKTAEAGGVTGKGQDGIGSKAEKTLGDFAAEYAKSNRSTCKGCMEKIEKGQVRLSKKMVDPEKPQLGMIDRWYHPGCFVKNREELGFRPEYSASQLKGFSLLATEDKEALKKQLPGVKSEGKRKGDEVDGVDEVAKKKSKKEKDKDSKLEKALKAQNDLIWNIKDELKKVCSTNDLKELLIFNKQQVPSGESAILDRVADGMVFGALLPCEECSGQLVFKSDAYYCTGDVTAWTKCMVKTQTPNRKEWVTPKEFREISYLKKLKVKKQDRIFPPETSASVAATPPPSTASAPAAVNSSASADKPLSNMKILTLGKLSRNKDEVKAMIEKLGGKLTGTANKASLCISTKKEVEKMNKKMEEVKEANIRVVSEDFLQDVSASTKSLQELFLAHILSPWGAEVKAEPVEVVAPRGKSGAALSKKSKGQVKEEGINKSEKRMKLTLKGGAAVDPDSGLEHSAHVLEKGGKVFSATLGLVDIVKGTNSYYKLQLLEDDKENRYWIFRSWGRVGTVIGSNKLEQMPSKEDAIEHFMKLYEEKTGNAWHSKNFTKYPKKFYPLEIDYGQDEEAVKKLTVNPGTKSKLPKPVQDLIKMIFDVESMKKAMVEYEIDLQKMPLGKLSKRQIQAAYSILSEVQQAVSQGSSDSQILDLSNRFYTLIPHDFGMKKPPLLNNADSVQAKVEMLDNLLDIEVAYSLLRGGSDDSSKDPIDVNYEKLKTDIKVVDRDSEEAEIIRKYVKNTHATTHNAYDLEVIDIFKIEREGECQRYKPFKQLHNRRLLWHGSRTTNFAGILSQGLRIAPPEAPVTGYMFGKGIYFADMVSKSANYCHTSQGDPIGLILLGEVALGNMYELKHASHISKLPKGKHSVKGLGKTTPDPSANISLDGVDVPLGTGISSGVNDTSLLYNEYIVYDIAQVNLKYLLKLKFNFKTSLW

As for `NC(=O)c1cccc2cn(-c3ccc([C@@H]4CCCNC4)cc3)nc12` [NIRAPARIB], in [1], the CL was 0.3 µL/min/mg. The inhibition result in series [2] and in [8] was “Active” in each case. Further, the CC50 in [3] is greater than 5000 nM; in series [4] it was 90 nM; in [5], 860 nM; in series [7], greater than 5000 nM; in [9], 33 nM; in series [10], 18 nM. The same compound had a bioavailability in series [6] of 65%. Besides, the intrinsic metabolic clearance (microsomal CLint) in series [11] is 16 µL/min/mg; in [13] it was 4 µL/min/mg. The compound also yielded an EC90 in series [12] of 45 nM. Moreover, the clearance in series [14] came out at 28 mL/min/kg.

In the case of `CNCc1ccc(-n2cc3cccc(C(N)=O)c3n2)cc1`, the microsomal CLint stood at 6 µL/min/mg in [15]; 28 µL/min/mg in series [16]; 5 µL/min/mg in series [17]; 22 µL/min/mg in series [19]; 28 µL/min/mg in series [11]; 3 µL/min/mg in series [13]. Besides, the microsomal CLint in series [21] stood at 22 µL/min/mg. For the same compound, the figures for the CC50 in series [5] and in [9] were 5400 nM and 460 nM, respectively. This compound registered a bioavailability in series [6] of 23%. Further, the Drug uptake in [18] came to 80 %ID; in series [25], 50 %ID. Moreover, the IC50 in [20] was 3.8 nM. In [12], this compound returned a concentration for an effect of 90% (EC90) of 740 nM. Also, the clearance in series [14] is 220 mL/min/kg. Moreover, the EC50 in series [22] was found to be 68 nM. The “Selectivity Index” value in series [23] was found to be 10. The Stability result in [24] was “Stable”.

Usually CC50 stands for the concentration at which the toxic effect on the cells reaches its halfway point. Lower therefore signals greater toxicity to the cells. By bioavailability is commonly meant the share of a dose that reaches the circulation, judged against a reference dose that is usually intravenous. High values mean good availability, low ones poor availability. For orientation: microsomal CLint means a measure of how fast metabolising enzymes remove a compound, apart from limits set by blood flow. By EC90 is commonly meant the concentration at which the effect reaches the 90% level. Read a high EC90 as weaker potency. A word on the clearance: it is a measure of how efficiently the substance is removed, as volume per time. One may read the IC50 as the point on the concentration scale where inhibition reaches its midpoint. Read a low IC50 as greater potency in that assay. Usually EC50 stands for the concentration giving half of the maximal effect.
